Measurements as given in PubChem BioAssay AID248 (DTP/NCI, 2004).
Several values for one entry are separate records, joined by “and”; a condition that tells them apart may be missing. Equal entries are not always repeated. Inconclusive results and toxic doses are left out. No stated cut-off is given here; in the data, active means T/C of 150% or more; inactive means T/C below 125%.

Tested on: L1210 leukemia ip in BDF1 mice, survival T/C
Experiment: NCI In Vivo Anticancer Drug Screen. Data for tumor model L1210 Leukemia (intraperitoneal) in B6D2F1 (BDF1) mice
Settings: endpoint: mean survival time, higher = longer survival
In short: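 Tumor cells were implanted, animals were treated, and survival was followed. The result divides the treated measurement by the vehicle-control measurement.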

[1] = dose: 50.0 mg/kg/injection, schedule: Q01DX001 (ip), vehicle: saline
[2] = dose: 100.0 mg/kg/injection, schedule: Q01DX001 (ip), vehicle: saline
[3] = dose: 200.0 mg/kg/injection, schedule: Q01DX001 (ip), vehicle: saline
[4] = dose: 400.0 mg/kg/injection, schedule: Q01DX001 (ip), vehicle: saline
[5] = dose: 100.0 mg/kg/injection, schedule: Q04DX003 (ip), vehicle: saline
[6] = dose: 200.0 mg/kg/injection, schedule: Q04DX003 (ip), vehicle: saline
[7] = dose: 400.0 mg/kg/injection, schedule: Q04DX003 (ip), vehicle: saline
[8] = dose: 100.0 mg/kg/injection, schedule: Q04DX002 (ip), vehicle: saline with Tween-80
[9] = dose: 200.0 mg/kg/injection, schedule: Q04DX002 (ip), vehicle: saline with Tween-80
[10] = dose: 100.0 mg/kg/injection, schedule: Q04DX003 (ip), vehicle: saline with Tween-80
[11] = dose: 200.0 mg/kg/injection, schedule: Q04DX003 (ip), vehicle: saline with Tween-80
[12] = dose: 400.0 mg/kg/injection, schedule: Q04DX003 (ip), vehicle: saline with Tween-80
[13] = dose: 100.0 mg/kg/injection, schedule: Q01DX009 (ip), vehicle: saline with Tween-80
[14] = dose: 200.0 mg/kg/injection, schedule: Q01DX009 (ip), vehicle: saline with Tween-80
[15] = dose: 400.0 mg/kg/injection, schedule: Q01DX009 (ip), vehicle: saline with Tween-80

Measured: T/C

Cc1cc([P+](c2ccccc2)(c2ccccc2)c2ccccc2)c(C)cc1[P+](c1ccccc1)(c1ccccc1)c1ccccc1
inactive: dose: 0.37 mg/kg/injection, schedule: Q04DX003 (ip), vehicle: Klucel (hydroxypropylcellulose) (HPC) 96 % of control | dose: 0.75 mg/kg/injection, schedule: Q04DX003 (ip), vehicle: Klucel (hydroxypropylcellulose) (HPC) 106 % of control | dose: 1.5 mg/kg/injection, schedule: Q04DX003 (ip), vehicle: Klucel (hydroxypropylcellulose) (HPC) 93 % of control | dose: 3.0 mg/kg/injection, schedule: Q04DX003 (ip), vehicle: Klucel (hydroxypropylcellulose) (HPC) 91 % of control

CC(=O)C(O)COP(=O)(O)O (stereo not given)
inactive: [1] 96 % of control | [2] 100 % of control | [3] 102 % of control | [4] 100 % of control

O=C(CCl)OC(=O)C(Cl)(Cl)Cl
inactive: [5] 102 % of control | [6] 96 % of control

COC1=C2C=[N+](C)C3C(=C2C=CC1OC)Cc1cc(OC)c(OC)cc13 (stereo not given)
inactive: [1] 98 % of control | [2] 93 % of control | [3] 102 % of control | [4] 96 % of control

Oc1ccc2ccccc2c1C(c1ccccc1)N1CCCCC1 (stereo not given)
inactive: dose: 100.0 mg/kg/injection, schedule: Q01DX001 (ip), vehicle: Klucel (hydroxypropylcellulose) (HPC) 94 % of control | dose: 200.0 mg/kg/injection, schedule: Q01DX001 (ip), vehicle: Klucel (hydroxypropylcellulose) (HPC) 97 % of control | dose: 400.0 mg/kg/injection, schedule: Q01DX001 (ip), vehicle: Klucel (hydroxypropylcellulose) (HPC) 103 % of control

FC1(F)C(F)(F)C(Cl)(Cl)C1(Cl)Cl
inactive: [5] 104 % of control | [6] 96 % of control | [7] 107 % of control

O=C1NC(=O)C2(CCCc3ccc(N(CCCl)CCCl)cc32)N1 (stereo not given)
inactive: dose: 30.0 mg/kg/injection, schedule: Q01DX015 (ip), vehicle: carboxymethylcellulose (CMC) 102 % of control | dose: 60.0 mg/kg/injection, schedule: Q01DX015 (ip), vehicle: carboxymethylcellulose (CMC) 120 % of control | dose: 120.0 mg/kg/injection, schedule: Q01DX015 (ip), vehicle: carboxymethylcellulose (CMC) 123 % of control | dose: 240.0 mg/kg/injection, schedule: Q01DX015 (ip), vehicle: carboxymethylcellulose (CMC) 107 % of control

CCOC(=O)Oc1ccc(Br)cc1Br
inactive: [2] 104 % of control | dose: 100.0 mg/kg/injection, schedule: Q01DX009 (ip), vehicle: carboxymethylcellulose (CMC) 93 % of control and 96 % of control | dose: 100.0 mg/kg/injection, schedule: Q04DX002 (ip), vehicle: saline 99 % of control | [5] 103 % of control | [3] 102 % of control | dose: 200.0 mg/kg/injection, schedule: Q01DX009 (ip), vehicle: carboxymethylcellulose (CMC) 94 % of control and 97 % of control | dose: 200.0 mg/kg/injection, schedule: Q04DX002 (ip), vehicle: saline 92 % of control | [6] 95 % of control | [4] 104 % of control | dose: 400.0 mg/kg/injection, schedule: Q01DX009 (ip), vehicle: carboxymethylcellulose (CMC) 92 % of control and 93 % of control | dose: 400.0 mg/kg/injection, schedule: Q04DX002 (ip), vehicle: saline 104 % of control | [7] 102 % of control

COC(=O)COc1cc(Cl)c(Cl)cc1Cl
inactive: [8] 95 % of control | [9] 95 % of control

COC(=O)C1=C(C(=O)OC)C2(C)OC1C1OC12 (stereo not given)
inactive: dose: 12.5 mg/kg/injection, schedule: Q01DX009 (ip), vehicle: Klucel (hydroxypropylcellulose) (HPC) 97 % of control | dose: 25.0 mg/kg/injection, schedule: Q01DX009 (ip), vehicle: Klucel (hydroxypropylcellulose) (HPC) 90 % of control

CCc1ccccc1NC(=O)Nc1ccc(CCO)cc1
inactive: dose: 100.0 mg/kg/injection, schedule: Q01DX009 (ip), vehicle: Klucel (hydroxypropylcellulose) (HPC) 98 % of control | dose: 200.0 mg/kg/injection, schedule: Q01DX009 (ip), vehicle: Klucel (hydroxypropylcellulose) (HPC) 105 % of control | dose: 400.0 mg/kg/injection, schedule: Q01DX009 (ip), vehicle: Klucel (hydroxypropylcellulose) (HPC) 96 % of control

COc1cc2ccnc(C(OC(=O)c3ccccc3)c3ccc(OCc4ccccc4)cc3)c2cc1OC (stereo not given)
inactive: [10] 95 % of control | [11] 88 % of control | [12] 95 % of control

Cc1ccc(S(=O)(=O)OC2C(C)C3C2S(=O)(=O)C3(C)C)cc1 (stereo not given)
inactive: [10] 102 % of control | [11] 104 % of control | [12] 102 % of control

O=c1[nH]c2ccsc2c(=O)n1O
inactive: [5] 102 % of control | [6] 97 % of control

N#Cc1cccn1O
inactive: dose: 37.5 mg/kg/injection, schedule: Q01DX009 (ip), vehicle: Klucel (hydroxypropylcellulose) (HPC) 104 % of control | dose: 75.0 mg/kg/injection, schedule: Q01DX009 (ip), vehicle: Klucel (hydroxypropylcellulose) (HPC) 100 % of control | dose: 150.0 mg/kg/injection, schedule: Q01DX009 (ip), vehicle: Klucel (hydroxypropylcellulose) (HPC) 108 % of control

O=C(c1ccccc1)C(C(O)CCl)C(O)(C(F)(F)F)C(F)(F)F (stereo not given)
inactive: [10] 89 % of control | [11] 93 % of control | [12] 91 % of control

O=C(O)CCCN1C(=O)C2C3CCC(C3)C2C1=O (stereo not given)
inactive: [10] 103 % of control | [11] 98 % of control | [12] 107 % of control

COc1cc(NC(=O)Oc2ccc([N+](=O)[O-])cc2)ccc1S(=O)(=O)F
inactive: [13] 94 % of control | [14] 103 % of control | [15] 103 % of control

CC1(C)COC(c2ccccc2)=N1
inactive: [13] 105 % of control | dose: 100.0 mg/kg/injection, schedule: Q04DX003 (ip), vehicle: saline sonified 93 % of control | [14] 103 % of control | dose: 200.0 mg/kg/injection, schedule: Q04DX003 (ip), vehicle: saline sonified 87 % of control | [15] 102 % of control | dose: 400.0 mg/kg/injection, schedule: Q04DX003 (ip), vehicle: saline sonified 90 % of control

COC(=N)Cc1ccc(OC)c(OC)c1
inactive: [13] 94 % of control | [14] 89 % of control | [15] 92 % of control

N#CC1(OC2OC(CO)C(O)C(O)C2O)C=CC(O)C1O (stereo not given)
inactive: [5] 98 % of control | [6] 105 % of control | [7] 96 % of control

CCNC(C1CCCCC1)C(C)OC(=O)c1ccc(N)cc1 (stereo not given)
inactive: dose: 75.0 mg/kg/injection, schedule: Q01DX001 (ip), vehicle: saline 98 % of control

CC1=C(N)C(=O)C(C)=C(N)C1=O
inactive: dose: 100.0 mg/kg/injection, schedule: Q01DX001 (ip), vehicle: other 98 % of control | dose: 200.0 mg/kg/injection, schedule: Q01DX001 (ip), vehicle: other 88 % of control | dose: 400.0 mg/kg/injection, schedule: Q01DX001 (ip), vehicle: other 97 % of control

O=[N+]([O-])c1cccc([I+]c2cccc([N+](=O)[O-])c2)c1
inactive: [8] 100 % of control | dose: 100.0 mg/kg/injection, schedule: Q04DX003 (ip), vehicle: Klucel (hydroxypropylcellulose) (HPC) 96 % of control | [9] 92 % of control | dose: 200.0 mg/kg/injection, schedule: Q04DX003 (ip), vehicle: Klucel (hydroxypropylcellulose) (HPC) 104 % of control | dose: 400.0 mg/kg/injection, schedule: Q04DX002 (ip), vehicle: saline with Tween-80 100 % of control | dose: 400.0 mg/kg/injection, schedule: Q04DX003 (ip), vehicle: Klucel (hydroxypropylcellulose) (HPC) 91 % of control
